Source: the supplement of paper PMC10307832

Legend:
Assay in all cases: relative viability (nuclei count vs DMSO), 5 days (fraction); higher = more cells survive
[1] = compound: CC1=C(C=CC(=C1)[N+](=O)[O-])NS(=O)(=O)C2=C(C=CC(=C2)Cl)Cl [FH535] + CC(=O)Nc1cccc(-n2c(=O)n(C3CC3)c(=O)c3c(Nc4ccc(I)cc4F)n(C)c(=O)c(C)c32)c1 [Trametinib] (partner 0.02 µM)
Method in brief: (§1)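 Each reported value is a median over duplicate plates. It expresses relative viability: treated-well nuclei count divided by vehicle-well nuclei count. Lung cancer cell lines in 1536-well plates were dosed by pin tool a day after seeding, alone with one drug or with a fixed anchor-drug dose plus five library-drug doses (not always all listed) in √10 steps, and nuclei were counted after 5 days.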

[2] = compound: CC1=C(C=CC(=C1)[N+](=O)[O-])NS(=O)(=O)C2=C(C=CC(=C2)Cl)Cl [FH535] + C[C@@H](Oc1cc(-c2cnn(C3CCNCC3)c2)cnc1N)c1c(Cl)ccc(F)c1Cl [Crizotinib] (partner 1 µM)
Method in brief: as §1

[3] = compound: CC1=C(C=CC(=C1)[N+](=O)[O-])NS(=O)(=O)C2=C(C=CC(=C2)Cl)Cl [FH535] + C[C@]1(O)C[C@@H](c2nc(-c3ccc4ccc(-c5ccccc5)nc4c3)c3c(N)nccn32)C1 [Linsitinib] (partner 1 µM)
Method in brief: as §1

[4] = compound: CC1=C(C=CC(=C1)[N+](=O)[O-])NS(=O)(=O)C2=C(C=CC(=C2)Cl)Cl [FH535] + Nc1nc2[nH]cc(CCc3ccc(C(=O)N[C@@H](CCC(=O)O)C(=O)O)cc3)c2c(=O)[nH]1 [Pemetrexed] (partner 0.2 µM)
Method in brief: as §1

[5] = compound: CC1=C(C=CC(=C1)[N+](=O)[O-])NS(=O)(=O)C2=C(C=CC(=C2)Cl)Cl [FH535] + O=C(c1cc(Cc2n[nH]c(=O)c3ccccc23)ccc1F)N1CCN(C(=O)C2CC2)CC1 [Olaparib] (partner 8 µM)
Method in brief: as §1

Cell Line | relative viability ([1]; first compound 0.04 µM) | relative viability ([1]; first compound 0.1265 µM) | relative viability ([1]; first compound 0.4 µM) | relative viability ([1]; first compound 1.265 µM) | relative viability ([2]; first compound 0.04 µM) | relative viability ([2]; first compound 0.1265 µM) | relative viability ([2]; first compound 0.4 µM) | relative viability ([2]; first compound 1.265 µM) | relative viability ([3]; first compound 0.04 µM) | relative viability ([3]; first compound 0.1265 µM) | relative viability ([3]; first compound 0.4 µM) | relative viability ([3]; first compound 1.265 µM) | relative viability ([4]; first compound 0.04 µM) | relative viability ([4]; first compound 0.1265 µM) | relative viability ([4]; first compound 0.4 µM) | relative viability ([4]; first compound 1.265 µM) | relative viability ([5]; first compound 0.04 µM) | relative viability ([5]; first compound 0.1265 µM) | relative viability ([5]; first compound 0.4 µM) | relative viability ([5]; first compound 1.265 µM)
NCI-H1666 | 0.861 | 0.869 | 0.905 | 0.69 | 1.06 | 0.979 | 0.956 | 0.871 | 0.88 | 0.78 | 0.753 | 0.55 | 0.838 | 0.834 | 0.948 | 0.794 | 0.742 | 0.731 | 0.756 | 0.725
NCI-H1734 | 0.574 | 0.671 | 0.656 | 0.558 | 0.625 | 0.691 | 0.648 | 0.588 | 0.838 | 0.939 | 0.876 | 0.866 | 0.45 | 0.434 | 0.415 | 0.388 | 0.539 | 0.715 | 0.635 | 0.613
NCI-H1755 | 0.755 | 0.809 | 0.725 | 0.739 | 0.931 | 0.859 | 0.801 | 0.776 | 0.968 | 0.996 | 0.912 | 0.919 | 0.406 | 0.42 | 0.342 | 0.413 | 0.867 | 0.857 | 0.8 | 0.869
NCI-H1792 | 0.493 | 0.504 | 0.455 | 0.394 | 0.967 | 0.963 | 0.907 | 0.632 | 0.54 | 0.601 | 0.527 | 0.396 | 0.708 | 0.807 | 0.673 | 0.54 | 0.463 | 0.329 | 0.39 | 0.345
NCI-H1915 | 0.312 | 0.324 | 0.296 | 0.247 | 0.907 | 0.871 | 0.867 | 0.688 | 1.08 | 1.12 | 1.08 | 0.896 | 0.472 | 0.522 | 0.498 | 0.487 | 0.208 | 0.286 | 0.242 | 0.236
NCI-H1944 | 0.405 | 0.42 | 0.398 | 0.325 | – | 1.18 | 0.962 | 0.907 | – | 1.31 | 1.22 | 1.05 | 0.53 | 0.621 | 0.505 | 0.515 | 0.382 | 0.453 | 0.431 | 0.308
NCI-H1975 | 0.329 | 0.232 | 0.287 | 0.329 | 1.06 | 1.08 | 0.948 | 0.842 | 0.95 | 0.986 | 0.925 | 0.784 | 0.286 | 0.309 | 0.277 | 0.275 | 0.868 | 0.877 | 0.718 | 0.624
NCI-H1993 | 0.57 | 0.566 | 0.496 | 0.52 | 0.809 | 0.911 | 0.589 | 0.609 | 0.703 | 0.734 | 0.673 | 0.745 | 0.539 | 0.611 | 0.523 | 0.463 | 0.941 | 1.03 | 0.983 | 0.581
NCI-H2009 | 0.306 | 0.316 | 0.251 | 0.24 | 1.1 | 1.06 | 0.903 | 0.677 | 1.2 | 1.09 | 1.13 | 1.05 | 1 | 1 | 0.955 | 0.836 | 0.666 | 0.652 | 0.662 | 0.552
NCI-H2023 | 0.542 | 0.641 | 0.598 | 0.44 | 0.761 | 0.639 | 0.676 | 0.723 | 0.677 | 0.631 | 0.745 | 0.629 | 0.194 | 0.219 | 0.249 | 0.21 | 0.48 | 0.5 | 0.474 | 0.368
NCI-H2085 | 0.567 | 0.624 | 0.503 | 0.403 | 1.03 | 0.969 | 0.705 | 0.695 | 0.858 | 0.924 | 0.892 | 0.724 | 0.926 | 1.02 | 0.804 | 0.677 | 0.818 | 0.713 | 0.749 | 0.571
NCI-H2087 | 0.243 | 0.152 | 0.182 | 0.157 | 0.96 | 0.774 | 0.765 | 0.415 | 0.98 | 0.994 | 0.87 | 0.512 | 0.656 | 0.694 | 0.663 | 0.624 | 0.391 | 0.553 | 0.516 | 0.378
NCI-H2126 | 0.541 | 0.624 | 0.535 | 0.392 | 0.976 | 0.984 | 0.941 | 0.683 | 0.746 | 0.719 | 0.705 | 0.619 | 0.639 | 0.659 | 0.662 | 0.536 | 0.928 | 0.896 | 0.822 | 0.525
NCI-H2228 | 0.376 | 0.368 | 0.464 | 0.413 | 0.523 | 0.606 | 0.486 | 0.388 | 0.88 | 0.668 | 0.611 | 0.385 | 0.312 | 0.364 | 0.327 | 0.341 | 0.783 | 0.886 | 0.709 | 0.698
NCI-H2347 | 0.276 | 0.318 | 0.3 | 0.291 | 0.677 | 0.617 | 0.807 | 0.649 | 1.02 | 1.05 | 0.902 | 0.812 | 0.523 | 0.405 | 0.43 | 0.41 | 0.525 | 0.595 | 0.553 | 0.498
NCI-H2405 | 0.56 | 0.651 | 0.611 | 0.531 | 0.816 | 0.854 | 0.805 | 0.725 | 0.848 | 1.01 | 0.953 | 0.76 | 0.977 | 1.01 | 0.769 | 0.565 | 0.882 | 0.832 | 0.765 | 0.524
